Data as given in patent US4761483A, “Chloro-substituted ketone imidazole derivatives” (G. D. Searle & Co., priority 1985, dated 1988).
Values after ≈ are worked out from the molar mass of the structure shown. Values joined by “and” are separate entries in the source; they are usually repeats but may differ in a detail not shown here. Identical values can stand only once. Counter-ions that a name gives are not always drawn. Like-named read-outs stand apart in the source and are kept apart here.

Experiments:
B. fragilis NCTC 9344 = experiment: anti-anaerobic activity, MIC/MBC in 96 well microtitre plates, strain C; format: cell-based, Bacteroides fragilis; details: for MBC / MIC: Bacteroides fragilis, NCTC9344, 48 h; for MBC: read-out: MBC (Minimum Bactericidal Concentration); for MIC: read-out: MIC (Minimum Inhibitory Concentration)
B. fragilis WS-1 = experiment: anti-anaerobic activity, MIC/MBC in 96 well microtitre plates, strain E; format: cell-based; details: Bacteroides fragilis; for MIC: 48 hours at 37° C., anaerobic chamber, 10^5 cells/ml, read-out: MIC (Minimum Inhibitory Concentration); for MBC: 99.9% reduction in viable count after 48 hours
B. fragilis NCTC 10581 = experiment: anti-anaerobic activity, MIC/MBC in 96 well microtitre plates, strain A; format: cell-based, Bacteroides fragilis; details: for MBC / MIC: Bacteroides fragilis, NCTC10581, 48 h; for MBC: read-out: MBC (Minimum Bactericidal Concentration); for MIC: read-out: MIC (Minimum Inhibitory Concentration)
[1] = test system: B. fragilis MZ-R ATCC 11295; experiment: anti-anaerobic activity, MIC/MBC in 96 well microtitre plates, strain D; format: cell-based, Bacteroides fragilis; details: for MBC / MIC: Bacteroides fragilis, ATCC11295, 48 h; for MBC: read-out: MBC (Minimum Bactericidal Concentration); for MIC: read-out: MIC (Minimum Inhibitory Concentration)
Procedure: The screening panel utilized in the Example consisted of 5 strains of Bacteroides fragilis. All assays were carried out in 96 well microtitre plates. If an isolate was obtained from either a culture collection or clinical source, the isolate was immediately innoculated into Wilkens-Chalgren broth (Oxoid) and incubated at 37° C. in an anaerobic chamber in an atmosphere of 85% nitrogen, 10% carbon dioxide, and 5% hydrogen for 48 hours. At the end of this time, the viable count was about […] broth. A 1 ml aliquot of each culture was placed in an ampoule and quick frozen in acetone-dry ice mixture and stored in liquid nitrogen. When an inoculum was utilized in an assay, one of the ampoules was thawed and diluted with fresh broth to yield a suspension having a count of 5×10^5 organisms/ml. A 100 μl aliquot of the suspension was inoculated into each well of the microtitre plate. A 2 mg sample of the test compound wa dissolved in 0.2 ml of a suitable solvent such as dimethylsulfoxide, polyethylene glycol 200 or methanol. The solution was then diluted with 4.8 ml of water to yield a solution having a concentration of 400 mg/L. Doubling dilutions of this stock were prepared to give a range of concentrations from 1.6-200 mg/L. 100 μl of each concentration were then placed in the wells of the microtitre plate containing the inoculum, to produce a final concentration range of 0.8-100 mg/l. Metronidazole was employed as a positive control and a solvent/water mixture was employed as a negative control. After addition of the test solution the final inoculum level was 10^5 cells/ml. The plates were incubated for 48 hours at 37° C. in the anaerobic chamber. The Minimum Inhibitory Concentration (MIC) was read visually. The MIC is defined as the lowest concentration at which there is no detectable growth. The Minimum Bactericidal Concentration (MBC) was determined by taking a 50 μl aliquot from each well and placing it in fresh medium. […] The strains of Bacteroides fragilis utilized in the above procedure are identified by letter in accordance with the following legend: |D B. fragilis MZ-R ATCC 11295

B. fragilis NCTC 9343 = experiment: anti-anaerobic activity, MIC/MBC in 96 well microtitre plates, strain B; format: cell-based, Bacteroides fragilis; details: for MIC / MBC: Bacteroides fragilis; for MIC: read-out: MIC (Minimum Inhibitory Concentration); for MBC: 99.9% reduction in viable count after 48 hours
[2] = test system: Peptococcus magnus ATCC 29328; experiment: anti-anaerobic activity, MIC (procedures of Example 13); format: cell-based; details: Finegoldia magna, ATCC29328
[3] = test system: Clostridium perfringens NCTC 523; experiment: microbe, parasite or virus in culture; format: cell-based; details: NCTC523
[4] = test system: Fusobacterium necrophorum ATCC 11295; experiment: anti-anaerobic activity, MIC (procedures of Example 13); format: cell-based; details: ATCC11295, procedures of Example 13 (there mg/L)
[5] = test system: Campylobacter fetus ATCC 29428; experiment: as above; format: cell-based; details: ATCC29428, procedures of Example 13 (there mg/L)
[6] = test system: Propionibacterium acnes NCTC 7337; experiment: as above; format: cell-based; details: Cutibacterium acnes, NCTC7337, procedures of Example 13 (there mg/L)
[7] = test system: Clostridium perfringens NCTC 8237; experiment: microbe, parasite or virus in culture; format: cell-based; details: NCTC8237
[8] = test system: Peptostreptococcus anaerobicus ATCC 27337; experiment: anti-anaerobic activity, MIC (procedures of Example 13); format: cell-based; details: ATCC27337
[9] = test system: Peptococcus prevotti ATCC 9321; experiment: as above; format: cell-based
[10] = test system: Propionibacterium acnes NCTC 737; experiment: as above; format: cell-based; details: Cutibacterium acnes, NCTC737, procedures of Example 13 (there mg/L)
[11] = strain C, 99.9% reduction in viable count after 48 hours
[12] = strain C, 48 hours at 37° C., anaerobic chamber, 10^5 cells/ml
[13] = WS1, strain E, read-out: MBC (Minimum Bactericidal Concentration)
[14] = strain A, 99.9% reduction in viable count after 48 hours
[15] = strain A, 48 hours at 37° C., anaerobic chamber, 10^5 cells/ml
[16] = 99.9% reduction in viable count after 48 hours
[17] = 48 hours at 37° C., anaerobic chamber, 10^5 cells/ml
[18] = NCTC9343, 48 h, strain B, 48 hours at 37° C., anaerobic chamber, 10^5 cells/ml
[19] = NCTC9343, strain B, read-out: MBC (Minimum Bactericidal Concentration)

Row | SMILES | MBC (B. fragilis NCTC 9344; [11]) [µg/mL] | MIC (B. fragilis NCTC 9344; [12]) [µg/mL] | MIC (B. fragilis WS-1; WS1, 48 h, strain E) [µg/mL] | MBC (B. fragilis WS-1; [13]) [µg/mL] | MBC (B. fragilis NCTC 10581; [14]) [µg/mL] | MIC (B. fragilis NCTC 10581; [15]) [µg/mL] | MBC [1, 16] [µg/mL] | MIC [1, 17] [µg/mL] | MIC (B. fragilis NCTC 9343; [18]) [µg/mL] | MBC (B. fragilis NCTC 9343; [19]) [µg/mL] | further results
1 | COC(=O)CCc1cn(CC(Cl)(C(=O)c2ccc(Cl)cc2Cl)c2ccccc2)cn1 (stereo not drawn) [Example 5, 3-[1-[2-Chloro-3-(2,4-dichlorophenyl)-3-oxo-2-phenylpropyl]-imidazol-4-yl]propanoic acid methyl ester] | 1.5 (≈ 3.22 µM) | 1.5 (≈ 3.22 µM) | 3.1 (≈ 6.66 µM) | 3.1 (≈ 6.66 µM) | 1.5 (≈ 3.22 µM) | 1.5 (≈ 3.22 µM) | 0.8 (≈ 1.72 µM) | 0.8 (≈ 1.72 µM) | 1.5 (≈ 3.22 µM) | 1.5 (≈ 3.22 µM) | –
2 | C[C@H](NC(=O)[C@@H](N)CCCCNC(=O)/C=C/c1cn(CC(Cl)(C(=O)c2ccc(Cl)cc2Cl)c2ccccc2)cn1)C(=O)O (stereo partly drawn) [Example 12, N-[N^6-[E-3-[1-[2-Chloro-3-(2,4-dichlorophenyl)-3-oxo-2-phenylpropyl]imidazol-4-yl]propenoyl]-L-lysinyl]-L-alanine] | 3.1 (≈ 4.78 µM) | 3.1 (≈ 4.78 µM) | 6.2 (≈ 9.55 µM) | 6.2 (≈ 9.55 µM) | 3.1 (≈ 4.78 µM) | 1.5 (≈ 2.31 µM) | 0.8 (≈ 1.23 µM) | 0.8 (≈ 1.23 µM) | 1.5 (≈ 2.31 µM) | 1.5 (≈ 2.31 µM) | –
3 | O=C(O)/C=C/c1cn(CC(Cl)(C(=O)c2ccc(Cl)cc2Cl)c2ccccc2)cn1 (stereo not drawn) [Example 6, E-3-[1-[2-Chloro-3-(2,4-dichlorophenyl)-3-oxo-2-phenylpropyl]imidazol-1-yl]propenoic acid hydrochloride] | 0.8 | 0.8 | 3.1 | 3.1 | 0.8 | 0.8 | 0.8 | 0.8 | 1.5 | 3.1 | –
4 | Cc1ncc([N+](=O)[O-])n1CCO [Metronidazole, reference compound] | 0.8 (≈ 4.67 µM) | 0.8 (≈ 4.67 µM) | – | 1.5 (≈ 8.76 µM) | 0.8 (≈ 4.67 µM) | 0.8 (≈ 4.67 µM) | 6.2 (≈ 36.2 µM) | 6.2 (≈ 36.2 µM) | 0.8 (≈ 4.67 µM) | 0.8 (≈ 4.67 µM) | MIC [2]: 0.8 µg/mL (≈ 4.67 µM); MIC [3]: 0.8 µg/mL (≈ 4.67 µM); MIC [4]: 6.2 µg/mL (≈ 36.2 µM); MIC [5]: > 100 µg/mL; MIC [6]: > 100 µg/mL; MBC (B. fragilis NCTC 9344): 1.2 µg/mL (≈ 7.01 µM); MBC (Minimum Bactericidal Concentration) (B. fragilis NCTC 9344; [11]): 0.6 µg/mL (≈ 3.51 µM); MIC (Minimum Inhibitory Concentration) (B. fragilis NCTC 9344; [12]): 0.6 µg/mL and 1.2 µg/mL; MIC [7]: 0.8 µg/mL (≈ 4.67 µM); MBC (B. fragilis WS-1; WS1, 48 h, read-out: MBC (Minimum Bactericidal Concentration), strain E): 1.2 µg/mL (≈ 7.01 µM); MIC ([8]; Peptostreptococcus): 0.8 µg/mL (≈ 4.67 µM); MBC (B. fragilis NCTC 10581): 1.2 µg/mL (≈ 7.01 µM); MBC (Minimum Bactericidal Concentration) (B. fragilis NCTC 10581; [14]): 0.6 µg/mL (≈ 3.51 µM); MIC (Minimum Inhibitory Concentration) (B. fragilis NCTC 10581; [15]): 0.6 µg/mL (≈ 3.51 µM); MBC (Minimum Bactericidal Concentration) [1, 16]: 10.0 µg/mL (≈ 58.4 µM); MIC (Minimum Inhibitory Concentration) [1, 17]: 10.0 µg/mL (≈ 58.4 µM); MIC [9]: 1.5 µg/mL (≈ 8.76 µM); MBC (B. fragilis NCTC 9343; NCTC9343, 48 h, read-out: MBC (Minimum Bactericidal Concentration), strain B): 1.2 µg/mL (≈ 7.01 µM); MIC (Minimum Inhibitory Concentration) (B. fragilis NCTC 9343; strain B, 48 hours at 37° C., anaerobic chamber, 10^5 cells/ml): 1.2 µg/mL and 0.6 µg/mL; MIC [10]: > 100 µg/mL
5 | C[C@H](NC(=O)[C@H](Cc1cn(CC(Cl)(C(=O)c2ccc(Cl)cc2Cl)c2ccccc2)cn1)NC(=O)OC(C)(C)C)C(=O)OC(C)(C)C (stereo partly drawn) [Example 9, N-[1-[2-Chloro-3-(2,4-dichlorophenyl)-3-oxo-2-phenylpropyl]-N-[(1,1-dimethylethoxy)carbonyl]-L-histidyl]-L-alanine 1,1-dimethylethyl ester] | 6.2 (≈ 8.93 µM) | 6.2 (≈ 8.93 µM) | 12.5 (≈ 18 µM) | 12.5 (≈ 18 µM) | 6.2 (≈ 8.93 µM) | 3.1 (≈ 4.47 µM) | 0.8 (≈ 1.15 µM) | 0.8 (≈ 1.15 µM) | 3.1 (≈ 4.47 µM) | 3.1 (≈ 4.47 µM) | –
6 | O=C(c1ccc(Cl)cc1Cl)C(Cl)(Cn1ccnc1)c1ccccc1 (stereo not drawn) [Example 4, 2-Chloro-1-(2,4-dichlorophenyl)-3-(imidazol-1-yl)-2-phenylpropan-1-one] | 12.5 (≈ 32.9 µM) | 0.8 (≈ 2.11 µM) | 0.8 (≈ 2.11 µM) | 6.2 (≈ 16.3 µM) | 6.2 (≈ 16.3 µM) | 0.8 (≈ 2.11 µM) | 3.1 (≈ 8.16 µM) | 0.8 (≈ 2.11 µM) | 0.8 (≈ 2.11 µM) | 6.2 (≈ 16.3 µM) | MIC ([2]; Peptococcus magnus ATCC 29328, procedures of Example 13 (there mg/L), read-out: MIC): 0.8 µg/mL (≈ 2.11 µM); MIC [3]: 0.8 µg/mL (≈ 2.11 µM); MIC [4]: 0.8 µg/mL (≈ 2.11 µM); MIC [5]: 0.8 µg/mL (≈ 2.11 µM); MIC [6]: 0.8 µg/mL (≈ 2.11 µM); MIC [7]: 0.8 µg/mL (≈ 2.11 µM); MIC ([8]; Peptostreptococcus anaerobicus ATCC 27337, procedures of Example 13 (there mg/L), read-out: MIC): 0.8 µg/mL (≈ 2.11 µM); MIC ([9]; Peptococcus prevotti ATCC 9321, procedures of Example 13 (there mg/L), read-out: MIC): 0.8 µg/mL (≈ 2.11 µM); MIC [10]: 0.8 µg/mL (≈ 2.11 µM)
7 | C[C@H](NC(=O)[C@@H](N)Cc1cn(CC(Cl)(C(=O)c2ccc(Cl)cc2Cl)c2ccccc2)cn1)C(=O)O (stereo partly drawn) [Example 10, N-[1-[2-Chloro-3-(2,4-dichlorophenyl)-3-oxo-2-phenylpropyl]-L-histidyl]-L-alanine] | 6.2 (≈ 11.5 µM) | 3.1 (≈ 5.76 µM) | 6.2 (≈ 11.5 µM) | 6.2 (≈ 11.5 µM) | 3.1 (≈ 5.76 µM) | 3.1 (≈ 5.76 µM) | 0.8 (≈ 1.49 µM) | 0.8 (≈ 1.49 µM) | 3.1 (≈ 5.76 µM) | 3.1 (≈ 5.76 µM) | –
8 | N[C@@H](Cc1cn(CC(Cl)(C(=O)c2ccc(Cl)cc2Cl)c2ccccc2)cn1)C(=O)O (stereo partly drawn) [Example 8, 1-[2-Chloro-3-(2,4-dichlorophenyl)-3-oxo-2-phenylpropyl]-L-histidine] | 0.8 (≈ 1.71 µM) | 0.8 (≈ 1.71 µM) | 3.1 (≈ 6.64 µM) | 3.1 (≈ 6.64 µM) | 0.8 (≈ 1.71 µM) | 0.8 (≈ 1.71 µM) | 0.8 (≈ 1.71 µM) | 0.8 (≈ 1.71 µM) | 0.8 (≈ 1.71 µM) | 0.8 (≈ 1.71 µM) | –
